Target: T1, hemoglobin (Homo sapiens, UniProt P69905)
T1 construct: whole blood ex vivo
Assay: Hb occupancy calculated from preliminary PK analysis of whole blood samples
Type: in vivo
Details: Patient A, 300 mg QD 14 days then 200 mg QD
Method: In some embodiments, the therapeutically effective amount is determined by measuring the percent of hemoglobin occupied by the compound, i.e., the percent Hb occupancy. The percent Hb occupancy is a measure of target engagement defined as the percentage of hemoglobin bound by a compound (e.g., Compound I) calculated as the molar concentration of the compound (e.g., Compound I) in RBCs divided by the molar concentration of hemoglobin in RBCs (the mean corpuscular hemoglobin concentration calculated from the hematology panel). The values for concentration of a compound (e.g., Compound I) in RBCs is calculated from the concentrations in whole blood and plasma, and the hematocrit.
In some embodiments, the percent hemoglobin occupancy may be calculated as described herein. In some embodiments, percent hemoglobin occupancy is the molar ratio of Compound I concentration to the Hb concentration in red blood cells.
Some newly enrolled participants in Part A will receive a loading dose regimen of 300 mg of Compound I once daily over the first 14 days. Participants will then receive 200 mg once daily maintenance doses through Week 12.
Based on preliminary pharmacokinetic (PK) analysis of whole blood samples taken from Patient A at day 15 and day 29, Hb occupancy values of 62% and 53%, respectively, were calculated.

T1 sequence (P69905 whole entry): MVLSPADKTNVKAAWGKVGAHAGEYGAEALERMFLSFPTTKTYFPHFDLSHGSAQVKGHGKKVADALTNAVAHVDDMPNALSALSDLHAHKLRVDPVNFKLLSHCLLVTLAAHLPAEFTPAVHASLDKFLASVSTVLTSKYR
T1 sequence (P68871 with tags, fused parts or gaps E7V partner): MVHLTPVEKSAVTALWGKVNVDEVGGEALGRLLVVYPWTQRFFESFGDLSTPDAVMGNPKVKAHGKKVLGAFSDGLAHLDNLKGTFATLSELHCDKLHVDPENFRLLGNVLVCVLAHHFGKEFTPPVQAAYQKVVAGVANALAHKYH

O=Cc1c(O)cccc1OC[C@@H]1COCCN1C(=O)c1cccnc1CCO [Compound I, (S)-2-hydroxy-6-((4-(2-(2-hydroxyethyl)nicotinoyl)morpholin-3-yl)methoxy)benzaldehyde]
Hb occupancy (day 15, whole blood, 21600 min): 62%
Hb occupancy (day 29, whole blood, 41760 min): 53%

Source: patent US20260306503A1, “(S)-2-HYDROXY-6-((4-(2-(2-HYDROXYETHYL)NICOTINOYL)MORPHOLIN-3-YL)METHOXY)BENZALDEHYD FOR USE IN THE TREATMENT OF SICKLE CELL DISEASE” (Global Blood Therapeutics, Inc., priority 2023, published 2026)
